{
  "source": "patent US5073571A",
  "about": "“Method of inhibiting virus” (priority 1989, dated 1991)",
  "key": {"HIV-1 [1]": {"test_system": "HIV-1", "assay": "HIV-1 replication in H9 cells, reverse transcriptase activity of culture supernatants (acute infection)", "type": "cell-based, HIV-1 strain HXB2gptX (in human H9 cells)", "conditions": "for relative efficacy on HIV-1 production: 1-100 μM, ranking among the four analogs", "method": "(§1) Media was changed every other day. The effect of these compounds on virus production was determined by measuring the reverse transcriptase (RT) activity in samples of the cell culture supernatants. […] Negative controls consisted of no additions or 0.1ethanol. The results of duplicate assays were averaged. Panel B -Concentration-dependent effects of 13-oxamyristic acid on HIV-1 replication as measured by RT activity (percent of untreated control) and the presence of p24 antigen (ng/ml determined by ELISA). Error bars indicate the S.E.M. of assays done in triplicate. Panel C - The effect of 13-oxamyristic acid on syncytia formation using an arbitrary scale described under Materials and Methods, Example 16, below. Panel D - Toxicity of 13-oxamyristic acid determined by viable cell count (trypan blue exclusion), as well as by [^3 H]thymidine and [^3 H]leucine labeling (see under Materials and Methods, Example 16, below). The incorporation of these radiolabeled compounds was determined in the total cell population contained in a well after 10 days of treatment with the analog. Duplicate assays were performed and the results averaged.\nAssay for HIV-1 Replication. The human T-lymphoid cell line, H9, was provided by R. D. Gallo (NIH) and maintained in RPMI-1640 medium supplemented with 10% fetal bovine serum, 100 IU/mL penicillin, 100 μg/mL streptomycin an 2 mM L-glutamine. HIV-1 strain HXB2gptX [Fisher et al., Science 233, 655-659 (1986)] was obtained from cultures of chronically infected H9 cells [Popovic et al., Science 224, 497-500 (1984)]< filtered through 0.2 μm Millipore filters and stored at -90° C. The titer of the virus stock was determined by serial dilution using syncytia formation and reverse transcriptase activity (see below) as a measure of infectivity in H9 cells.\nCell-free HIV-1, at a multiplicity of infection (m.o.i.) equal to 0.01-0.001, was added to 10^7 H9 cells which had been pretreated with 2 μg/ml Polybrene® (hexadimethrene bromide, Sigma). Following a 30 min incubation at 37° C. to absorb the virus, 4 × 10^5 of virus treated cells in 1 mL of fresh medium (plus 10% fetal calf serum, pencillin and streptomycin) were added to each well of a 24 well tissue culture plate (Falcon), and mixed with an equal volume of serum-free RPMI-1640 medium containing analog. Medium containing 5% serum, antibiotics ± analog was replaced every other day. Each of the heteroatom substituted analogs was prepared as a 100 mM stock solution in 100% ethanol and stored at -90° C. prior to dilution in the serum-free RPMI-1640 medium. The maximum final ethanol concentration reached after dilution of the different analogs in media was 0.1%. Therefore, uninfected and infected H9 cells, treated with or without 0.1% ethanol, were used as controls for each test. Ethanol alone had no demonstrable effects.\nExcept for the preliminary screening of the various (coded) analogs which was done twice, all other assays were performed at least three times. Samples were tested in duplicate each time the assay was repeated.\nVirus Assays. Virus was quantitated using supernatant solutions of cells harvested on day 8 (m.o.i.=0.01) or day 10 (m.o.i.=0.001) of treatment. Virions were concentrated 10 fold by precipitation of culture supernatants with a solution of polyethylene glycol (30% in 150 mM NaCl, 0.1 mM phenylmethylsulfonylfluoride). The precipitates were solubilized and virus-associated reverse transcriptase (RT) activity measured by [^32 P]TTP incorporation using a poly(rA)-oligo(dT) template [Poiesz et al., Proc. Natl. Acad. Sci. USA 77, 7415-7419 (1980)]. Cell supernatants were also tested for virus-specific antigen using a p24 ELISA from Dupont (Wilmington, DE). This assay can detect as little as 0.03 ng of antigen/mL (antigen=p24, the major structural nucleocapsid protein of HIV-1, as well as its precursor, Pr55^gag).\nHIV-1 Replication in H9 Cells is Inhibited by Treatment with Heteroatom-Containing Analogs of Myristate. […]"}, "H9 cells [2]": {"test_system": "H9 cells", "assay": "Toxicity in HIV-1 infected H9 cells: viable cell count by trypan blue exclusion", "type": "cell-based, human", "method": "as §1\nToxicity Studies. These analyses were conducted for both assay systems. Cell survival was determined by trypan-blue exclusion. The number of unstained cells/mL in the treated cultures was divided by the number of unstained cells/mL in the untreated control cultures and expressed as percent control. Protein synthesis was measured at the end of the treatment periods by metabolic labeling for 4 hrs with L-[4,5^3 H(N)]-leucine (2 μCi/mL media, specific activity =140 Ci/mmol). All cells contained in a given well of a 24 well plate were recovered by scraping, the protein precipitated by TCA (final concentration =10%) and the solution subsequently incubated at 100° C. for 5 min prior to passage over glass fiber filters (Whatman). In the case of the H-9 assay, treated or untreated cells were pulsed labeled at the conclusion of the 10 day incubation. […] DNA synthesis was assessed on day 10 of the H9 assay. […]"}, "HIV-1 [3]": {"test_system": "HIV-1", "assay": "HIV-1 replication in H9 cells, p24 antigen ELISA", "type": "cell-based, HIV-1 strain HXB2gptX (in human H9 cells)", "conditions": "20-40 μM range", "method": "as §1, with “Panel C - The effect of 13-oxamyristic acid on syncytia formation using an arbitrary scale described under Materials and Methods, Example 16, below.” left out, “Duplicate assays were performed and the results averaged.” left out\nAssay for HIV-1 Replication. […] The titer of the virus stock was determined by serial dilution using syncytia formation and reverse transcriptase activity (see below) as a measure of infectivity in H9 cells. […]\nVirus Assays. Virus was quantitated using supernatant solutions of cells harvested on day 8 (m.o.i.=0.01) or day 10 (m.o.i.=0.001) of treatment. […]"}, "H9 cells [4]": {"test_system": "H9 cells", "assay": "[3H]leucine and [3H]thymidine labeling (protein and DNA synthesis) in HIV-1 infected H9 cells", "type": "cell-based, human", "conditions": "day 10", "method": "as §1, with “Panel C - The effect of 13-oxamyristic acid on syncytia formation using an arbitrary scale described under Materials and Methods, Example 16, below.” left out, “Duplicate assays were performed and the results averaged.” left out\nToxicity Studies. […] Cell survival was determined by trypan-blue exclusion. The number of unstained cells/mL in the treated cultures was divided by the number of unstained cells/mL in the untreated control cultures and expressed as percent control. Protein synthesis was measured at the end of the treatment periods by metabolic labeling for 4 hrs with L-[4,5^3 H(N)]-leucine (2 μCi/mL media, specific activity =140 Ci/mmol). […]"}, "uninfected H9 cells": {"test_system": "uninfected H9 cells", "assay": "Metabolic labeling tests using uninfected H9 cells", "type": "cell-based, human", "conditions": "0.1 to 100 μM", "method": "Toxicity Studies. These analyses were conducted for both assay systems. Cell survival was determined by trypan-blue exclusion. The number of unstained cells/mL in the treated cultures was divided by the number of unstained cells/mL in the untreated control cultures and expressed as percent control. Protein synthesis was measured at the end of the treatment periods by metabolic labeling for 4 hrs with L-[4,5^3 H(N)]-leucine (2 μCi/mL media, specific activity =140 Ci/mmol). All cells contained in a given well of a 24 well plate were recovered by scraping, the protein precipitated by TCA (final concentration =10%) and the solution subsequently incubated at 100° C. for 5 min prior to passage over glass fiber filters (Whatman). In the case of the H-9 assay, treated or untreated cells were pulsed labeled at the conclusion of the 10 day incubation. For the MoMLV assay, labeling studies were performed on LZ1 virus producing cells at the conclusion of the 2 day treatment period. An additional control test was performed on NIH 3T3 cells that had never been exposed to virus but which had been incubated with media (± analog) for two days. DNA synthesis was assessed on day 10 of the H9 assay. Cells were labeled for 12 h with [5'-^3 H]thymidine (0.5 μCi/mL, specific activity =2 Ci/mmol). All the cells in a well were harvested by scraping, their nucleic acid precipitated with TCA (final concentration =10%), and then collected on glass fiber filters prior to counting.\nThe cellular toxicity of 13-oxamyristate was analyzed using three independent assays of cell viability. First, viable cell number was determined at the conclusion of the 10 day treatment period using trypan blue exclusion. The percentage of living cells in untreated, HIV-1 infected cultures was reduced by 50% compared to that of untreated, uninfected cells (FIG. 1D). This reflects the cytopathic effects encountered with this strain of HIV-1 [Ratner et al., Nature 313, 277-284 (1985)]. […] To further investigate this hypothesis, the effects of increasing concentrations of the analog on DNA and protein synthesis were determined."}, "[5]": {"conditions": "Human immunodeficiency virus 1, H9, 240 h, read-out: reverse transcriptase (RT) activity"}},
  "data": [
    {"smiles": "COCCCCCCCCCCCC(=O)O", "note": "[13-oxamyristate, 12-(Methoxy)dodecanoic acid]", "values": [
      {"measurement": "dose dependence of reduction in reverse transcriptase activity", "setting": "HIV-1 [1]; 0.1 μM to 100 μM, H9 cells", "value": "dose dependent reduction in reverse transcriptase activity"},
      {"measurement": "effect on reverse transcriptase activity", "setting": "HIV-1 [1]; 1-10 μM, 10 day incubation, HIV-1 infected H9 cells", "value": "More pronounced effects"},
      {"measurement": "relative efficacy on HIV-1 production", "setting": "HIV-1 [1]; H9 cells", "value": "greatest effects"},
      {"measurement": "relative efficacy on HIV-1 production", "setting": "HIV-1 [1]; H9 cells, listed as 13-oxamyristic acid", "value": "most effective"},
      {"measurement": "reduction in virus replication (reverse transcriptase)", "setting": "HIV-1 [1]; 20-40 μM range, H9 cells", "value": "greater than 90%"},
      {"measurement": "activity at 10 µM", "setting": "HIV-1 [1]; [5]", "value": 20, "unit": "%"},
      {"measurement": "activity at 100 µM", "setting": "HIV-1 [1]; [5]", "value": "< 10", "unit": "%"},
      {"measurement": "viable cell count in HIV-1 infected H9 cultures relative to untreated controls", "setting": "H9 cells [2]; 20 to 40 μM, 10 day treatment", "value": "equivalent to that of untreated controls"},
      {"measurement": "viable cell count in HIV-1 infected H9 cultures", "setting": "H9 cells [2]; 10 day treatment, trypan blue exclusion", "value": "an increase in viable cell count was observed"},
      {"measurement": "direct toxicity to the cells", "setting": "H9 cells [2]; HIV-1 infected H9 cells, suggested by viable cell number", "value": "not directly toxic to the cells"},
      {"measurement": "reduction in virus replication (p24 ELISA)", "setting": "HIV-1 [3]", "value": "greater than 90%"},
      {"measurement": "[3H]leucine labeling", "setting": "H9 cells [4]", "value": "correlated with the cell survival data"},
      {"measurement": "[3H]thymidine labeling", "setting": "H9 cells [4]", "value": "correlated with the cell survival data"},
      {"measurement": "DNA synthetic rates", "setting": "uninfected H9 cells", "value": "no significant effects"},
      {"measurement": "growth rates", "setting": "uninfected H9 cells", "value": "no significant effects"},
      {"measurement": "protein synthetic rates", "setting": "uninfected H9 cells", "value": "no significant effects"}
    ]}
  ]
}
